ChEMBL document CHEMBL1137553, “An expeditious synthesis of tamoxifen, a representative SERM (selective estrogen receptor modulator), via the three-component coupling reaction among aromatic aldehyde, cinnamyltrimethylsilane, and beta-chlorophenetole” (Bioorg Med Chem, 2007)
≈ marks a conversion by molar mass, not a printed value.

Tests used:
HL-60 [1] = test: Antiproliferative activity against human HL60 cells assessed as cell viability at 1 ug/ml after 4 hrs by MTT assay; assay type: functional; details: HL-60, 4 h, read-out: Activity
HL-60 [2] = test: Antiproliferative activity against human HL60 cells assessed as cell viability at 5 ug/ml after 4 hrs by MTT assay; assay type: functional; details: HL-60, 4 h, read-out: Activity
HL-60 [3] = test: Antiproliferative activity against human HL60 cells assessed as cell viability at 10 ug/ml after 4 hrs by MTT assay; assay type: functional; details: HL-60, 4 h, read-out: Activity
HL-60 [4] = test: Antiproliferative activity against human HL60 cells assessed as cell viability after 4 hrs by MTT assay; assay type: functional
HL-60 [5] = test: Antiproliferative activity against human HL60 cells assessed as cell viability at 20 ug/ml after 4 hrs by MTT assay; assay type: functional; details: HL-60, 4 h, read-out: Activity
HL-60 [6] = test: Growth inhibition of human HL60 cells after 4 hrs by MTT assay; assay type: functional, cell-based; details: HL-60, 4 h

| IC50 (HL-60 [6]) | SMILES | viability at 1 µg/mL (HL-60 [1]) | viability at 5 µg/mL (HL-60 [2]) | viability at 10 µg/mL (HL-60 [3]) | Activity (HL-60 [4]) | viability at 20 µg/mL (HL-60 [5]) |
| --- | --- | --- | --- | --- | --- | --- |
| 6 µg/mL (≈ 13.3 µM) | CC/C(=C(/c1ccc(Br)cc1)c1ccc(OCCN(C)C)cc1)c1ccccc1 | 99.9% | 59.2% | 13.2% | 100% | 7.01% |
| 19 µg/mL (≈ 38.2 µM) | CC/C(=C(/c1ccc(OCCN(C)C)cc1)c1cccc(I)c1)c1ccccc1 | 109% | 104% | 97.2% | 100% | 36% |
| 7.7 µg/mL (≈ 14.7 µM) | CC/C(=C(\c1ccc(I)cc1)c1ccc(OCCN2CCCC2)cc1)c1ccccc1 [IDOXIFENE] | 106% | 82.7% | 25.5% | 100% | 8.72% |
| 5.9 µg/mL (≈ 15.9 µM) | CC/C(=C(\c1ccccc1)c1ccc(OCCN(C)C)cc1)c1ccccc1 [TAMOXIFEN] | 96.2% | 53.5% | 15.9% | 100% | 5.45% |
